According to patent US20110173718A1, “HERBICIDE TOLERANT PLANTS” (SYNGENTA CROP PROTECTION, INC., priority 2008, published 2011):

Columns and labels:
Arabidopsis HST = target: T1, Arabidopsis HST (Arabidopsis thaliana, UniProt Q1ACB3); assay: HST total extraction (non TLC) assay, recombinant Arabidopsis HST from insect cells; format: biochemical
T1 construct: GST (factor Xa cleavage site) (N); made in house; host or cells: Sf9 insect cells (baculovirus, pAcG3X), membrane fraction
T1 sequence (Q1ACB3 70-386): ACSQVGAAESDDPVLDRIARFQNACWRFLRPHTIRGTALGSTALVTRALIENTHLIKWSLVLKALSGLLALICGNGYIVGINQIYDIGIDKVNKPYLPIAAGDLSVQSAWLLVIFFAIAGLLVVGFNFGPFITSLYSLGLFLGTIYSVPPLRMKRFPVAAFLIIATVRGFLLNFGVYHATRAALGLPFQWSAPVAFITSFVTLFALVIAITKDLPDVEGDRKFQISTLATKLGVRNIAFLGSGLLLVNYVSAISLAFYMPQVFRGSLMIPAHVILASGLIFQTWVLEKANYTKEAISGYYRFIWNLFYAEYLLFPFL

weeds [1] = assay: Glasshouse weed control, HST inhibitors alone and with A22, post-emergence; format: in vivo; conditions: 336 h, 14 DAT, single replicate, read-out: % control score, Obs; for pest or weed control at 15.625 g/ha: 15.625 g/ha alone; for pest or weed control at 62.5 g/ha: 62.5 g/ha alone; for pest or weed control at 250 g/ha: 250 g/ha alone
Method: (§1) In a further test, the results of which are depicted in tables 18 and 19, weed seeds are planted out in trays containing 50% peat/50% John Innes no. 3 soil and grown in the glass house at 24-27 C day; 18-21 C night and approximately a 15 h photoperiod. Humidity is ˜65% and light levels at bench level are up to 2 mmol/m^2. Again all spray chemicals are dissolved in 0.2% X77 surfactant and sprayed from a boom on a track sprayer moving at 2 mph with the nozzle set about 2 inches above the plant tops. The spray volume is […]. Sprays are carried out both pre-emergence and post-emergence over small plants at about 7-12 d post-emergence. Plants are assessed at 14 DAT with herbicidal damage scored on a scale from 0 to 100%. The HPPD inhibiting herbicide is compound A22 (4-hydroxy-3-[[2-(2-methoxyethoxy)methyl]-6-(trifluoromethyl)-3-pyridinylicarbonyl]-bicyclo[3.2.1]oct-3-en-2-one) which is sprayed at 2 g/ha both alone and in mixture with various HST herbicides. Results and spray rates are depicted in Tables 18 and 19. Again the Colby formula has been used to calculate synergy scores observed following treatment with the mixture based on the results obtained with the single components alone. Positive synergy is observed between the HPPD herbicide and a wide variety of HST inhibitor herbicides applied both pre and postemergence across a variety of weeds.

weeds [2] = assay: Glasshouse weed control, HST inhibitors alone and with A22, pre-emergence; format: in vivo; conditions: 336 h, 14 DAT; for pest or weed control at 15.625 g/ha: HST inhibitor rate 15.625 g/ha; for pest or weed control at 62.5 g/ha: HST inhibitor rate 62.5 g/ha; for pest or weed control at 250 g/ha: HST inhibitor rate 250 g/ha
Method: as §1

[3] = BRAPL, read-out: BRAPL Obs, % control score
[4] = PANMI, read-out: PANMI Obs, % control score
[5] = SIDSP, read-out: SIDSP Obs, % control score
[6] = Digitaria sanguinalis, DIGSA, read-out: DIGSA Obs, % control score
[7] = Echinochloa crus-galli, ECHCG, read-out: ECHCG Obs, % control score
[8] = Setaria faberi, SETFA, read-out: SETFA Obs, % control score

Estimated IC50 (ppm) (Arabidopsis HST) | Compound | pest or weed control at 15.625 g/ha (weeds [1]; BRAPL) [%] | pest or weed control at 62.5 g/ha (weeds [1]; BRAPL) [%] | pest or weed control at 250 g/ha (weeds [1]; BRAPL) [%] | pest or weed control at 15.625 g/ha (weeds [1]; PANMI) [%] | pest or weed control at 62.5 g/ha (weeds [1]; PANMI) [%] | pest or weed control at 250 g/ha (weeds [1]; PANMI) [%] | pest or weed control at 15.625 g/ha (weeds [1]; SIDSP) [%] | pest or weed control at 62.5 g/ha (weeds [1]; SIDSP) [%] | pest or weed control at 250 g/ha (weeds [1]; SIDSP) [%] | pest or weed control at 15.625 g/ha (weeds [1]; Digitaria sanguinalis, DIGSA) [%] | pest or weed control at 62.5 g/ha (weeds [1]; Digitaria sanguinalis, DIGSA) [%] | pest or weed control at 250 g/ha (weeds [1]; Digitaria sanguinalis, DIGSA) [%] | pest or weed control at 15.625 g/ha (weeds [1]; Echinochloa crus-galli, ECHCG) [%] | pest or weed control at 62.5 g/ha (weeds [1]; Echinochloa crus-galli, ECHCG) [%] | pest or weed control at 250 g/ha (weeds [1]; Echinochloa crus-galli, ECHCG) [%] | pest or weed control at 15.625 g/ha (weeds [1]; Setaria faberi, SETFA) [%] | pest or weed control at 62.5 g/ha (weeds [1]; Setaria faberi, SETFA) [%] | pest or weed control at 250 g/ha (weeds [1]; Setaria faberi, SETFA) [%] | pest or weed control at 15.625 g/ha (weeds [2]; [3]) [%] | further results
64 | O=c1c(-c2c(F)ccc(Cl)c2Cl)c(O)c2nccnc2n1CC(F)F [Compound 2.21] | 5 | 30 | 80 | 10 | 30 | 70 | 5 | 20 | 40 | 0 | 10 | 20 | 0 | 10 | 40 | 2 | 20 | 60 | 0 | pest or weed control at 62.5 g/ha (weeds [2]; [3]): 2%; pest or weed control at 250 g/ha (weeds [2]; [3]): 5%; pest or weed control at 15.625 g/ha (weeds [2]; [4]): 0%; pest or weed control at 62.5 g/ha (weeds [2]; [4]): 0%; pest or weed control at 250 g/ha (weeds [2]; [4]): 0%; pest or weed control at 15.625 g/ha (weeds [2]; [5]): 0%; pest or weed control at 62.5 g/ha (weeds [2]; [5]): 0%; pest or weed control at 250 g/ha (weeds [2]; [5]): 1%; pest or weed control at 15.625 g/ha (weeds [2]; [6]): 0%; pest or weed control at 62.5 g/ha (weeds [2]; [6]): 0%; pest or weed control at 250 g/ha (weeds [2]; [6]): 0%; pest or weed control at 15.625 g/ha (weeds [2]; [7]): 0%; pest or weed control at 62.5 g/ha (weeds [2]; [7]): 0%; pest or weed control at 250 g/ha (weeds [2]; [7]): 5%; pest or weed control at 15.625 g/ha (weeds [2]; [8]): 0%; pest or weed control at 62.5 g/ha (weeds [2]; [8]): 0%; pest or weed control at 250 g/ha (weeds [2]; [8]): 2%
78 | Cn1c(=O)c(-c2c(Cl)cccc2C(F)(F)F)c(O)c2nccnc21 [Compound 2.16] | 10 | 30 | 70 | 5 | 40 | 70 | 5 | 40 | 50 | 0 | 2 | 40 | 2 | 15 | 50 | 1 | 30 | 65 | 0 | pest or weed control at 62.5 g/ha (weeds [2]; [3]): 5%; pest or weed control at 250 g/ha (weeds [2]; [3]): 50%; pest or weed control at 15.625 g/ha (weeds [2]; [4]): 0%; pest or weed control at 62.5 g/ha (weeds [2]; [4]): 0%; pest or weed control at 250 g/ha (weeds [2]; [4]): 40%; pest or weed control at 15.625 g/ha (weeds [2]; [5]): 0%; pest or weed control at 62.5 g/ha (weeds [2]; [5]): 0%; pest or weed control at 250 g/ha (weeds [2]; [5]): 0%; pest or weed control at 15.625 g/ha (weeds [2]; [6]): 0%; pest or weed control at 62.5 g/ha (weeds [2]; [6]): 0%; pest or weed control at 250 g/ha (weeds [2]; [6]): 0%; pest or weed control at 15.625 g/ha (weeds [2]; [7]): 0%; pest or weed control at 62.5 g/ha (weeds [2]; [7]): 15%; pest or weed control at 250 g/ha (weeds [2]; [7]): 60%; pest or weed control at 15.625 g/ha (weeds [2]; [8]): 0%; pest or weed control at 62.5 g/ha (weeds [2]; [8]): 10%; pest or weed control at 250 g/ha (weeds [2]; [8]): 45%
42 | O=S1(=O)C(c2ccc(Br)cc2C(F)(F)F)=C(O)c2nccnc2N1CC(F)F [Compound 3.5] | 2 | 30 | 65 | 5 | 15 | 70 | 2 | 10 | 10 | 0 | 0 | 5 | 5 | 15 | 30 | 2 | 10 | 40 | 0 | pest or weed control at 62.5 g/ha (weeds [2]; [3]): 0%; pest or weed control at 250 g/ha (weeds [2]; [3]): 0%; pest or weed control at 15.625 g/ha (weeds [2]; [4]): 0%; pest or weed control at 62.5 g/ha (weeds [2]; [4]): 0%; pest or weed control at 250 g/ha (weeds [2]; [4]): 0%; pest or weed control at 15.625 g/ha (weeds [2]; [5]): 0%; pest or weed control at 62.5 g/ha (weeds [2]; [5]): 0%; pest or weed control at 250 g/ha (weeds [2]; [5]): 2%; pest or weed control at 15.625 g/ha (weeds [2]; [6]): 0%; pest or weed control at 62.5 g/ha (weeds [2]; [6]): 0%; pest or weed control at 250 g/ha (weeds [2]; [6]): 0%; pest or weed control at 15.625 g/ha (weeds [2]; [7]): 0%; pest or weed control at 62.5 g/ha (weeds [2]; [7]): 0%; pest or weed control at 250 g/ha (weeds [2]; [7]): 0%; pest or weed control at 15.625 g/ha (weeds [2]; [8]): 0%; pest or weed control at 62.5 g/ha (weeds [2]; [8]): 0%; pest or weed control at 250 g/ha (weeds [2]; [8]): 0%
